{"source": "patent US20250290117A1", "about": "“MOLECULAR PHENOTYPIC ANTIMICROBIAL SUSCEPTIBILITY TESTING” (priority 2024, published 2025)", "key": {"Escherichia coli [1]": {"test_system": "Escherichia coli", "assay": "Molecular phenotypic antimicrobial susceptibility test (extraction or DNA purification prior to PCR)", "type": "cell-based", "experimental": "(§1) Detection of Molecular Phenotypic Antimicrobial Susceptibility. Disclosed herein are the methods for the detection of phenotypic antimicrobial susceptibility via molecular methods. The present invention describes how a specimen 100 with a known microbial load is incubated and then exposed to a panel of antimicrobial agents to determine sensitivity (prevention of growth) or resistance (allowance of growth) to the specific antimicrobial agents tested utilizing molecular methods.\nSample Collection. Specimens 100 are collected from patients using sterile collection processes that are employed in routine clinical care. Specimens are transported to the testing facility in boric acid preservative.\nPreparation of the Specimens for Testing. […] The process for pathogen isolation includes steps of harvesting the pathogen (e.g., via centrifugation), isolating pathogen DNA via a DNA isolation and/or purification kit, and performing PCR on the pathogen DNA via PCR components (e.g., primers, enzymes, buffers) as would be known to the skilled artisan. […] This aliquot is used for antimicrobial susceptibility testing if indicated based on the pathogen detection results. […] Specimens 100 with lower pathogen loads could also be utilized in the antibiotic susceptibility phase of testing with or without a longer incubation period.\n(§2) Preparation of Antimicrobial Susceptibility Testing Plates. Antimicrobial solutions are prepared at known concentrations. The specific antimicrobials and their concentrations are selected based on the pathogen of interest and the described antimicrobial resistance breakpoints for that specimen pathogen and antimicrobial combination. These antimicrobials have been selected based on those commonly utilized by healthcare providers in routine clinical care for the specific type of suspected infection. The number and types of antimicrobials utilized can be customized based on the infection source, pathogen detected, patient-specific factors such as allergies or other health conditions (e.g., chronic kidney disease or concurrent medication use), or healthcare provider preferences such as antimicrobial availability or cost.\nThe antimicrobial solutions are prepared in liquid culture media (such as Muller Hinton Broth) to achieve the desired antimicrobial concentration and are then stored at −80° C. until use. For a given specimen, each antimicrobial is tested at a single or multiple antimicrobial concentration(s) which is its established breakpoints for sensitivity. The antimicrobial solutions are prepared and plated out for each specific pathogen. […] This allows for evaluation of pathogen load when no antimicrobial is present.\nSpecimen Exposure to Antimicrobial Agents. The 1 mL aliquot of the specimen 100 previously mixed with culture media and incubated is obtained. Using optical density measurements as a guide, the specimen 100 is diluted to 0.5 McFarland.\nAntimicrobial exposure plates are typically placed into an incubator for 12-16 hours.\nNucleic Acid Amplification of Antimicrobial Agent Exposed Pathogens. The antimicrobial exposure plate is removed after the period of incubation. The specimen then undergoes a purification or lysis step. For example, the specimen may undergo a purification step (e.g., magnetic bead-based or other separation protocol to isolate genetic material). In another example, the specimen may undergo a cell lysis step. For example, buffer (e.g., lysis buffer) may be added and incubated in the thermal cycler for preparation for direct PCR. Next, the specimen may undergo a polymerase chain reaction (PCR) testing protocol, whereby a semi-quantitative PCR method is utilized. This may be completed either with or without a specific extraction protocol step. The pathogens can be individually targeted and detected, or a universal genetic sequence can be utilized to detect the antimicrobial susceptibility of the specimen as a whole."}, "P. aeruginosa [2]": {"test_system": "P. aeruginosa", "assay": "Molecular phenotypic antimicrobial susceptibility test with direct PCR (no extraction DNA purification step)", "type": "cell-based, Pseudomonas aeruginosa", "experimental": "as §1\nSample Collection. Specimens 100 are collected from patients using sterile collection processes that are employed in routine clinical care. Specimens are transported to the testing facility in boric acid preservative. Specimens 100 are subsequently divided into a first sample 104 and a second sample 108.\nPreparation of the Specimens for Testing. The specimens 100 are put through a pathogen identification process using PCR technology (e.g., using the first sample 104). The process for pathogen isolation includes steps of harvesting the pathogen (e.g., via centrifugation), isolating pathogen DNA via a DNA isolation and/or purification kit, and performing PCR on the pathogen DNA via PCR components (e.g., primers, enzymes, buffers) as would be known to the skilled artisan. Simultaneously, an additional aliquot of the same specimen (e.g., the second sample 108) is placed with liquid culture media and incubated for 4-6 hours. This aliquot is used for antimicrobial susceptibility testing if indicated based on the pathogen detection results. After pathogen identification is completed and if more than 10,000 cells/mL of bacteria (e.g., eligible bacteria) are detected in the source specimen, the second sample 108 then enters the antimicrobial susceptibility phase of testing. Specimens 100 with lower pathogen loads could also be utilized in the antibiotic susceptibility phase of testing with or without a longer incubation period.\nas §2\nThe antimicrobial solutions are prepared in liquid culture media (such as Muller Hinton Broth) to achieve the desired antimicrobial concentration and are then stored at −80° C. until use. For a given specimen, each antimicrobial is tested at a single or multiple antimicrobial concentration(s) which is its established breakpoints for sensitivity. The antimicrobial solutions are prepared and plated out for each specific pathogen. This allows ease of use on the day of testing after defrosting the plate 112. Table 1, which illustrates the results of molecular phenotypic antimicrobial susceptibility testing when more than one organism is present in the source specimen, provides an example of an antimicrobial plate 112 prepared for this purpose. Of note, control wells containing only culture media are present on all plates 112. This allows for evaluation of pathogen load when no antimicrobial is present.\nSpecimen Exposure to Antimicrobial Agents. The 1 mL aliquot of the specimen 100 previously mixed with culture media and incubated is obtained. Using optical density measurements as a guide, the specimen 100 is diluted to 0.5 McFarland. […]"}, "P. aeruginosa [3]": {"test_system": "P. aeruginosa", "assay": "Traditional culture-based antimicrobial susceptibility test", "type": "cell-based, Pseudomonas aeruginosa", "conditions": "P. aeruginosa isolate MRSN1938", "experimental": "Table 5 illustrates the results of an example antimicrobial agent susceptibility test of the current application versus a traditional culture-based antimicrobial agent susceptibility test for multiple specimens with different pathogens, in accordance with one or more embodiments of the disclosure. These specimens were tested with direct PCR (e.g., no extraction DNA purification step prior to PCR). As in Tables 1, 2, and 3, the results of the test of the current application are similar to the results from the traditional test.\nResult Reporting to Healthcare Providers. The results from the antimicrobial exposure are reported to the ordering healthcare provider. This information can be utilized by the healthcare provider when selecting an antimicrobial regimen for their individual patient based on these individual specimen results and patient specific factors. […] The current standard of care for antimicrobial susceptibility testing involves the growth, isolation, and exposure of pathogens to antimicrobials. This traditional culture and sensitivity process can take multiple days to obtain results, limiting the ability of healthcare providers to receive timely results to make actionable changes in patient care or management. Healthcare providers desire a method to obtain antimicrobial susceptibility results with quicker turn-around-time. This application discloses a molecular-based phenotypic antimicrobial susceptibility method which involves pathogen exposure to a panel of antimicrobial agents at their specified minimum inhibitory concentration breakpoints for sensitivity. This method allows for more timely antimicrobial susceptibility results."}, "Escherichia coli [4]": {"test_system": "Escherichia coli", "assay": "Traditional culture-based antimicrobial susceptibility test", "type": "cell-based", "source_text": "Table 3 illustrates the results of an example antimicrobial agent susceptibility test of the current application versus a traditional culture-based antimicrobial agent susceptibility test for multiple Escherichia coli isolates, in accordance with one or more embodiments of the disclosure. These specimens underwent extraction or DNA purification prior to PCR. As in Tables 1 and 2, the results of the test of the current application are similar to the results from the traditional test. […]\nTable 8 illustrates the results of an example antimicrobial agent susceptibility test of the current application versus a traditional culture-based antimicrobial agent susceptibility test for a low level positive with <10,000 cells/mL in the original specimen. These specimens were tested with direct PCR (e.g., no extraction DNA purification step prior to PCR) after 16 hours of incubation. As in Tables 1, 2, 3, 5, and 7, the results of the test are similar to the traditional test. […]"}}, "data": [{"smiles": "CC(C)(O/N=C(\\C(=O)N[C@@H]1C(=O)N2C(C(=O)[O-])=C(C[n+]3ccccc3)CS[C@H]12)c1csc(N)n1)C(=O)O", "note": "[Ceftazidime]", "values": [{"measurement": "Ct at Sensitive Breakpoint", "setting": "Escherichia coli [1]; E. coli isolate 1, Ct at control (average) 21.238", "value": 25.605}, {"measurement": "Molecular Antimicrobial Susceptibility Result", "setting": "Escherichia coli [1]; E. coli isolate 1, at sensitive breakpoint", "value": "Sensitive (Antimicrobial wells with pathogen load detected below the control wells (typically >2 cycle thresholds later) may be reported as Sensitive)"}, {"measurement": "Ct at Sensitive Breakpoint", "setting": "Escherichia coli [1]; E. coli isolate 2, Ct at control (average) 21.270", "value": 22.508}, {"measurement": "Molecular Antimicrobial Susceptibility Result", "setting": "Escherichia coli [1]; E. coli isolate 2, at sensitive breakpoint", "value": "Sensitive (Antimicrobial wells with pathogen load detected below the control wells (typically >2 cycle thresholds later) may be reported as Sensitive)"}, {"measurement": "Ct at Sensitive Breakpoint", "setting": "Escherichia coli [1]; E. coli isolate 3, Ct at control (average) 22.0995", "value": 22.583}, {"measurement": "Molecular Antimicrobial Susceptibility Result", "setting": "Escherichia coli [1]; E. coli isolate 3, at sensitive breakpoint", "value": "Resistant"}, {"measurement": "Ct at Sensitive Breakpoint", "setting": "P. aeruginosa [2]; P. aeruginosa isolate MRSN1938, Ct at control (average) 12.031", "value": 24.596}, {"measurement": "Molecular Antimicrobial Susceptibility Result", "setting": "P. aeruginosa [2]; P. aeruginosa isolate MRSN1938, at sensitive breakpoint", "value": "Sensitive (Antimicrobial wells with pathogen load detected below the control wells (typically >2 cycle thresholds later) may be reported as Sensitive)"}, {"measurement": "Traditional Culture Result", "setting": "P. aeruginosa [3]", "value": "Sensitive"}, {"measurement": "Traditional Culture Result", "setting": "Escherichia coli [4]; E. coli isolate 1 (Table 3)", "value": "Sensitive"}, {"measurement": "Traditional Culture Result", "setting": "Escherichia coli [4]; E. coli isolate 2 (Table 3)", "value": "Sensitive"}, {"measurement": "Traditional Culture Result", "setting": "Escherichia coli [4]; E. coli isolate 3 (Table 3)", "value": "Sensitive"}]}]}
